In patent US20090238852A1, “METHODS FOR CONTROLLING INTRACELLULAR CALCIUM LEVELS ASSOCIATED WITH AN ISCHEMIC EVENT” (University of Utah Research Foundation, priority 2008, published 2009):

What was measured:
[1] = test system: rabbit ventricular myocytes; test: Intracellular calcium [Ca^++]i in ventricular myocytes during paced metabolic ischemia (PMI), Fluo-3 flow cytometry; type: cell-based; conditions: n = 7
Text: Consequently, it prevents intracellular sodium overload and subsequent reverse mode operation of the sodium-calcium exchanger. The effect of 2-O, 3-O desulfated heparin on accumulation of intracellular Ca^++ during ischemia was studied in an adult rabbit ventricular myocyte model previously reported (Boston D R, et al. J Pharmacol Exp Ther 285:716-723, 1998; Li F, et al. J Mol Cell Cardiol 33:2145-2155, 2001). Isolated cardiomyocytes have been validated as reliable models of ischemia (Diaz, R J, Wilson G J. Cardiovasc Res 70:286-296, 2006).
To produce the model, hearts are removed from albino rabbits (2-3 kg) anesthetized with sodium pentobarbital (65 mg/kg IV). The heart was immediately attached to an aorta cannula. Continuous perfusion of the coronary arteries at 37° C. by a pump (Masterflex, Cole-Parmer Instrument Co., Chicago, Ill.) was initiated at a perfusion pressure of 60 mm Hg. The heart was first perfused with nominally Ca^++-free modified Krebs-Ringer bicarbonate buffered solution (MKRBB, pH 7.40, containing in mmol/L: NaCl 126, KCl 4.4, […], MgCl2 1.0, HEPES 24, probenecid 0.5 and glucose 5) for 10 min, immediately followed by 15-25 min of recirculating perfusion with the same solutions containing 0.3 mg/ml collagenase (Type 2, Worthington Biochemical, Freehold, N.J.), 0.4 mg/mL hyaluronidase (Type-S, Sigma-Aldrich, St. Louis, Mo.) and 50 μmol/L CaCl2. The heart was then detached from the cannula, and the left ventricle was minced and transferred to a 50 mL conical tube with the same solution containing 0.24 mg/mL collagenase, 0.02 mg/mL trypsin and 50 μmol/L Ca^++ for a second digestion. The minced tissue was continuously agitated by gassing the solution with 5% CO2 and 95% O2 to help release isolated myocytes. The resulting supernatant was transferred to another conical tube with the same volume of the same solution containing 0.03 mg/mL of trypsin inhibitor (Sigma-Aldrich). The cell suspension was centrifuged at 5×g for 5 minutes. The supernatant was discarded and cells were resuspended in solution with a higher Ca^++ concentration (200 μmol/L) and incubated in a CO2 incubator (5% CO2, 28° C.) to settle down cells by gravity for 10 min. The same procedure was repeated twice to bring up the Ca^++ concentration slowly (500, then 1000 μmol/L). Calcium step-up solutions were made from MKRBB with 2% albumin, 50 μmol/L CaCl2 mixed with the appropriate amount of minimum essential medium (MEM, Gibco Laboratories, Grand Island, N.Y.). At the end of isolation, cells were filtered with a […] to avoid cell clumping during flow cytometry studies. The yield of rod-shaped viable myocytes averaged 50%. Cells were used for experiments within 4 hours after dissociation.
In these studies, intracellular calcium concentration [Ca^++]i was measured by flow cytometry. Measurement of isolated mouse and rabbit ventricular myocyte [Ca^2+]i and [Na^+]i by flow cytometry has been described (Zhang et al., J. Cardiovasc. Pharmacol. 51: 443-449 (2008); Li et al., J. Mol. Cell. Cardiol. 33: 2145-2155 (2001)). [Ca^++]i was measured with the Ca^++ sensitive fluorescent probe, Fluo 3-AM (Molecular Probes, Eugene, Oreg.), using a FACScan (Becton-Dickinson, MA). The cells were exposed to 4 μmol/L Fluo-3 AM for 30 min at 37° C. The cells were then separated into aliquots. After 40 min of wash, the cells were exposed to paced metabolic ischemia (MI) for 45 min at 37° C. Metabolic ischemia was accomplished by incubating cells in a glucose-free MKRBB solution (pH 7.40) containing 2 mmol/L sodium cyanide (NaCN) to impair mitochondrial and glycolytic generation of ATP. To reproduce the situation in the beating ischemic heart, during the period of metabolic ischemia, myocytes were placed in a 5-well chamber with equal volumes of myocyte suspensions from the same heart dissociation placed in each well. The chamber was water bathed to maintain temperature at 37° C. and bubbled with 5% CO2 in air to keep myocytes in suspension. […]

NCE = conditions: cited from earlier work
[2] = test system: rabbit ventricular myocytes; test: [Ca^++]i during paced aerobic metabolism (PH) with the Na^+ channel opener ATX; type: cell-based; conditions: PH + ATX 20 nmol/L; n = 7; PH alone 406.8 ± 15.9
Procedure: (§1) In these studies, intracellular calcium concentration [Ca^++]i was measured by flow cytometry. Measurement of isolated mouse and rabbit ventricular myocyte [Ca^2+]i and [Na^+]i by flow cytometry has been described (Zhang et al., J. Cardiovasc. Pharmacol. 51: 443-449 (2008); Li et al., J. Mol. Cell. Cardiol. 33: 2145-2155 (2001)). [Ca^++]i was measured with the Ca^++ sensitive fluorescent probe, Fluo 3-AM (Molecular Probes, Eugene, Oreg.), using a FACScan (Becton-Dickinson, MA). The cells were exposed to 4 μmol/L Fluo-3 AM for 30 min at 37° C. The cells were then separated into aliquots. After 40 min of wash, the cells were exposed to paced metabolic ischemia (MI) for 45 min at 37° C. Metabolic ischemia was accomplished by incubating cells in a glucose-free MKRBB solution (pH 7.40) containing 2 mmol/L sodium cyanide (NaCN) to impair mitochondrial and glycolytic generation of ATP. To reproduce the situation in the beating ischemic heart, during the period of metabolic ischemia, myocytes were placed in a 5-well chamber with equal volumes of myocyte suspensions from the same heart dissociation placed in each well. The chamber was water bathed to maintain temperature at 37° C. and bubbled with 5% CO2 in air to keep myocytes in suspension. […] Approximately 2×10^3 myocytes were analyzed to calculate average emission fluorescence intensity in each sample. […] Only those cells with low fluorescence intensity at 670 nm (PI-negative cells or viable cells) were included in the comparative analysis of [Ca^++]i. The sample [Ca^2+]i values were calculated by Mn^2+ quenching (Sugishita et al, 2001) and [Na^+]i values by comparison with a standard curve of varied [Na^+]i versus Na Green fluorescence. […] Results were expressed as means±SEM. […]
To further examine the role of ODSH as a Na^+ inhibitor, additional experiments were performed in which the Na^+ channel opener amenone toxin II (ATX) was added to medium in a final concentration of 20 nmol/L to open the cardiac myocyte membrane Na^+ channel. […] Intracellular calcium concentration [Ca^++]i was monitored as earlier. […]

[3] = test system: rabbit ventricular myocytes; test: [Na^+]i in paced myocytes exposed to ATX, no metabolic inhibition; type: cell-based; conditions: ATX 10 nM, HEPES + pacing; FIG. 9; n = 6
Procedure: as §1, with “After 40 min of wash, the cells were exposed to paced metabolic ischemia (MI) for 45 min at 37° C.” left out, “suspension. Each well was fitted with platinum sheet electrodes on both sides for field stimulation. One chamber was constructed with a glass coverslip bottom so that myocytes can be observed microscopically to assess capture threshold. Placing electrodes were connected in series to a constant current pulse generator that delivers a 0.2 ampere pulse at 0.5 Hz.” for “suspension.”

CS(=O)(=O)O.N=C(N)SCCc1ccc(OCc2ccc([N+](=O)[O-])cc2)cc1 [KBR, 2-[2-[4-(4-nitrobenzyloxy)phenyl]ethyl]isothiourea metanesulfonate, reference compound]
[Ca^++]i ([1]; Table 6: PMI + KBR 10 μmol/L, PMI alone 985.5 ± 42.7): 666.5 ± 50.7 nM | selectivity for reserve mode versus forward mode (NCE; Iwamoto 1996): 50 fold

COc1ccccc1OCC(O)CN1CCN(CC(=O)Nc2c(C)cccc2C)CC1 (stereo not drawn) [ranolazine, reference compound]
effect on [Ca^2+]i during P-MI ([1]; each alone: ODSH 100 μg/ml, ranolazine 10 μM, FIG. 8): reduced [Ca^2+]i to a similar degree

CCOc1ccc(Oc2ccc(OCc3cc(F)ccc3F)cc2)c(N)c1 [SEA0400, 2-[4-[(2,5-difluorophenyl)methoxy]-phenoxy]-5-ethoxyaniline]
selectivity for the reverse versus forward mode of the NCE (NCE; Matsuda 2001): lacks selectivity for the reverse versus forward mode of the NCE

ATX: Na^+ channel opener; selective activator of INa,L [reference compound]
[Ca^++]i [2]: 529.1 ± 29.3 nM | effect on [Na^+]i in paced myocytes [3]: substantial increase in [Na^+]i
